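48-hour exposure; five concentrations; linearly interpolated endpoints. Here, GI50 denotes the concentration required for 50% inhibition of growth.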 Calls of active or inactive are those of the source. Rule as the data show it: active = GI50 up to about 1.1 µM and inactive = higher.
Legend:
Assay in all cases: inhibition of tumour cell growth, NCI panel, 48 h
SK-MEL-5 = system: SK-MEL-5
HT-29 = system: HT-29
786-0 = system: 786-0
ACHN = system: ACHN
A549 = system: A549
HCT-15 = system: HCT-15
SN12C = system: SN12C
LOX IMVI = system: LOX IMVI
OVCAR-5 = system: OVCAR-5
K562 = system: K562
SNB-75 = system: SNB-75
CCRF-CEM = system: CCRF-CEM
COLO 205 = system: COLO 205
NCI-H23 = system: NCI-H23
UACC-62 = system: UACC-62
SF-295 = system: SF-295
SK-MEL-2 = system: SK-MEL-2
CAKI-1 = system: CAKI-1

CN(C)CCC(/C=C/c1ccccc1)=N\Nc1ccccc1
GI50 (SK-MEL-5): 3.48 µM (inactive) | GI50 (HT-29): 2.97 µM (inactive) | GI50 (786-0): 2.03 µM (inactive) | GI50 (ACHN): 0.37 µM (active) | GI50 (A549): 1.73 µM (inactive) | GI50 (HCT-15): 0.336 µM | GI50 (SN12C): 2.74 µM (inactive) | GI50 (LOX IMVI): 0.0493 µM (active) | GI50 (OVCAR-5): 1.98 µM (inactive) | GI50 (K562): 0.325 µM (active) | GI50 (SNB-75): 3.48 µM (inactive) | GI50 (CCRF-CEM): 0.526 µM (active) | GI50 (COLO 205): 1.96 µM (inactive) | GI50 (NCI-H23): 3.97 µM (inactive) | GI50 (UACC-62): 0.617 µM (active) | GI50 (SF-295): 0.451 µM (active)

C[C@@H](CC(O)C1OC1(C)C)[C@@H]1CC[C@]2(C)C3=CCC4C(C)(C)C(O)CC[C@]4(C)C3CCC12C (stereo partly drawn)
GI50 (HT-29): 11.4 µM (inactive) | GI50 (786-0): 16 µM (inactive) | GI50 (ACHN): 14.8 µM (inactive) | GI50 (A549): 12.7 µM (inactive) | GI50 (HCT-15): 33.1 µM | GI50 (SN12C): 42.2 µM (inactive) | GI50 (LOX IMVI): 24.8 µM (inactive) | GI50 (OVCAR-5): 38 µM (inactive) | GI50 (SK-MEL-2): 18.6 µM (inactive) | GI50 (K562): 6.84 µM (inactive) | GI50 (CCRF-CEM): 27.5 µM (inactive) | GI50 (COLO 205): 21.3 µM (inactive) | GI50 (NCI-H23): 19.1 µM (inactive) | GI50 (UACC-62): 14.8 µM (inactive) | GI50 (SF-295): 13.7 µM (inactive)

COc1ccc([C@@]2(O)c3c(ccc(O)c3OC)[C@H]2OC)c(OC)c1
GI50 (SK-MEL-5): 48.6 µM (inactive) | GI50 (HT-29): 37.2 µM (inactive) | GI50 (786-0): 41.8 µM (inactive) | GI50 (ACHN): 86.1 µM (inactive) | GI50 (A549): 85.1 µM (inactive) | GI50 (SN12C): 71.8 µM (inactive) | GI50 (OVCAR-5): > 100 µM (inactive) | GI50 (SK-MEL-2): 63.4 µM (inactive) | GI50 (K562): 36.5 µM (inactive) | GI50 (SNB-75): 39.6 µM (inactive) | GI50 (CCRF-CEM): 36.6 µM (inactive) | GI50 (COLO 205): 44.2 µM (inactive) | GI50 (NCI-H23): 34.6 µM (inactive) | GI50 (UACC-62): > 10 µM (inactive) | GI50 (CAKI-1): 35.7 µM (inactive) | GI50 (SF-295): 29.2 µM (inactive)

NC(=O)N/N=C/C(=C/Nc1ccccc1)[N+](=O)[O-]
GI50 (SK-MEL-5): > 100 µM (inactive) | GI50 (HT-29): > 100 µM (inactive) | GI50 (786-0): > 100 µM (inactive) | GI50 (ACHN): > 100 µM (inactive) | GI50 (A549): > 100 µM (inactive) | GI50 (HCT-15): > 100 µM | GI50 (SN12C): > 100 µM (inactive) | GI50 (LOX IMVI): > 100 µM (inactive) | GI50 (K562): > 100 µM (inactive) | GI50 (CCRF-CEM): > 100 µM (inactive) | GI50 (COLO 205): > 100 µM (inactive) | GI50 (NCI-H23): > 100 µM (inactive) | GI50 (UACC-62): > 100 µM (inactive) | GI50 (SF-295): > 100 µM (inactive)

O=C(NC1C2CC3CC(C2)CC1C3)c1ccncn1 (stereo not drawn)
GI50 (SK-MEL-5): > 100 µM (inactive) | GI50 (HT-29): > 100 µM (inactive) | GI50 (786-0): > 100 µM (inactive) | GI50 (ACHN): > 100 µM (inactive) | GI50 (A549): > 100 µM (inactive) | GI50 (HCT-15): > 100 µM | GI50 (SN12C): > 100 µM (inactive) | GI50 (OVCAR-5): > 100 µM (inactive) | GI50 (SK-MEL-2): > 100 µM (inactive) | GI50 (K562): > 100 µM (inactive) | GI50 (SNB-75): > 100 µM (inactive) | GI50 (CCRF-CEM): > 100 µM (inactive) | GI50 (COLO 205): > 100 µM (inactive) | GI50 (NCI-H23): > 100 µM (inactive) | GI50 (UACC-62): > 100 µM (inactive) | GI50 (CAKI-1): > 100 µM (inactive) | GI50 (SF-295): > 100 µM (inactive)

N#CCc1cccc(CC#N)c1Br
GI50 (HT-29): > 100 µM (inactive) | GI50 (786-0): > 100 µM (inactive) | GI50 (ACHN): > 100 µM (inactive) | GI50 (A549): > 100 µM (inactive) | GI50 (HCT-15): > 100 µM | GI50 (SN12C): > 100 µM (inactive) | GI50 (LOX IMVI): > 100 µM (inactive) | GI50 (OVCAR-5): > 100 µM (inactive) | GI50 (SK-MEL-2): > 100 µM (inactive) | GI50 (K562): > 100 µM (inactive) | GI50 (SNB-75): > 100 µM (inactive) | GI50 (CCRF-CEM): > 100 µM (inactive) | GI50 (COLO 205): > 100 µM (inactive) | GI50 (NCI-H23): > 100 µM (inactive) | GI50 (UACC-62): > 100 µM (inactive) | GI50 (CAKI-1): > 100 µM (inactive) | GI50 (SF-295): > 100 µM (inactive)

CC(=O)Oc1cc(OC(C)=O)c2cc3c(cc2c1OC(C)=O)C(=O)C1(CCCC1)C3=O
GI50 (HT-29): 12.2 µM (inactive) | GI50 (786-0): 17.2 µM (inactive) | GI50 (ACHN): 17.7 µM (inactive) | GI50 (A549): 19.1 µM (inactive) | GI50 (HCT-15): 17.8 µM | GI50 (SN12C): 17.7 µM (inactive) | GI50 (LOX IMVI): 14.3 µM (inactive) | GI50 (K562): 14.7 µM (inactive) | GI50 (SNB-75): 14.2 µM (inactive) | GI50 (COLO 205): 17.4 µM (inactive) | GI50 (NCI-H23): 17.7 µM (inactive) | GI50 (UACC-62): 15.8 µM (inactive) | GI50 (CAKI-1): 11.4 µM (inactive) | GI50 (SF-295): 16.3 µM (inactive)

COC(=O)C1C2CC3C(OC(=O)C31)C2OC(=O)[C@](OC)(c1ccccc1)C(F)(F)F (stereo partly drawn)
GI50 (SK-MEL-5): > 100 µM (inactive) | GI50 (HT-29): > 100 µM (inactive) | GI50 (786-0): > 100 µM (inactive) | GI50 (ACHN): > 100 µM (inactive) | GI50 (A549): > 100 µM (inactive) | GI50 (HCT-15): > 100 µM | GI50 (SN12C): > 100 µM (inactive) | GI50 (LOX IMVI): > 100 µM (inactive) | GI50 (OVCAR-5): > 100 µM (inactive) | GI50 (SK-MEL-2): > 100 µM (inactive) | GI50 (K562): > 100 µM (inactive) | GI50 (SNB-75): > 100 µM (inactive) | GI50 (CCRF-CEM): > 100 µM (inactive) | GI50 (COLO 205): > 100 µM (inactive) | GI50 (NCI-H23): > 100 µM (inactive) | GI50 (CAKI-1): > 100 µM (inactive)

CCOC(=O)c1cnc2c(ccc3ncccc32)c1NCCCN(CC)CC
GI50 (SK-MEL-5): > 100 µM (inactive) | GI50 (HT-29): 39.1 µM (inactive) | GI50 (786-0): 37.9 µM (inactive) | GI50 (ACHN): > 100 µM (inactive) | GI50 (A549): > 100 µM (inactive) | GI50 (HCT-15): 80.5 µM | GI50 (LOX IMVI): 17.5 µM (inactive) | GI50 (OVCAR-5): > 100 µM (inactive) | GI50 (SK-MEL-2): > 100 µM (inactive) | GI50 (K562): 27.2 µM (inactive) | GI50 (CCRF-CEM): 38.4 µM (inactive) | GI50 (COLO 205): 70.3 µM (inactive) | GI50 (NCI-H23): 87.9 µM (inactive) | GI50 (UACC-62): > 100 µM (inactive) | GI50 (CAKI-1): > 100 µM (inactive) | GI50 (SF-295): 86.7 µM (inactive)

ON1CCc2c([nH]c3ccccc23)C1c1ccc(Cl)cc1 (stereo not drawn)
GI50 (HT-29): 17 µM (inactive) | GI50 (786-0): 32.1 µM (inactive) | GI50 (ACHN): 31 µM (inactive) | GI50 (A549): 30 µM (inactive) | GI50 (SN12C): 26.1 µM (inactive) | GI50 (LOX IMVI): 18.8 µM (inactive) | GI50 (OVCAR-5): 31.3 µM (inactive) | GI50 (SK-MEL-2): 23.1 µM (inactive) | GI50 (K562): 18.2 µM (inactive) | GI50 (SNB-75): 30.3 µM (inactive) | GI50 (CCRF-CEM): 18.2 µM (inactive) | GI50 (COLO 205): 32.9 µM (inactive) | GI50 (NCI-H23): 21.9 µM (inactive) | GI50 (UACC-62): 31 µM (inactive) | GI50 (SF-295): 27.7 µM (inactive)

O=C(N/N=C(\C1=Nc2ccc(Cl)cc2NC1O)C(O)/C=C/c1ccccc1)c1ccncc1 (stereo not drawn)
GI50 (SK-MEL-5): > 100 µM (inactive) | GI50 (HT-29): > 100 µM (inactive) | GI50 (786-0): > 100 µM (inactive) | GI50 (ACHN): > 100 µM (inactive) | GI50 (A549): > 100 µM (inactive) | GI50 (HCT-15): > 100 µM | GI50 (SN12C): > 100 µM (inactive) | GI50 (LOX IMVI): > 100 µM (inactive) | GI50 (OVCAR-5): > 100 µM (inactive) | GI50 (K562): > 100 µM (inactive) | GI50 (SNB-75): > 100 µM (inactive) | GI50 (CCRF-CEM): > 100 µM (inactive) | GI50 (COLO 205): > 100 µM (inactive) | GI50 (NCI-H23): > 100 µM (inactive) | GI50 (UACC-62): > 100 µM (inactive) | GI50 (CAKI-1): > 100 µM (inactive) | GI50 (SF-295): > 100 µM (inactive)

Cc1cccc(C)c1NC(=O)C1=NC(=S)NC(c2ccccc2)C1c1nc2ccccc2s1 (stereo not drawn)
GI50 (SK-MEL-5): > 100 µM (inactive) | GI50 (HT-29): > 100 µM (inactive) | GI50 (786-0): > 100 µM (inactive) | GI50 (ACHN): > 100 µM (inactive) | GI50 (A549): > 100 µM (inactive) | GI50 (SN12C): > 100 µM (inactive) | GI50 (SK-MEL-2): > 100 µM (inactive) | GI50 (K562): > 100 µM (inactive) | GI50 (SNB-75): > 100 µM (inactive) | GI50 (CCRF-CEM): > 100 µM (inactive) | GI50 (COLO 205): > 100 µM (inactive) | GI50 (NCI-H23): > 100 µM (inactive) | GI50 (UACC-62): > 100 µM (inactive) | GI50 (CAKI-1): > 100 µM (inactive) | GI50 (SF-295): > 100 µM (inactive)

Cc1ccc(C)c(N2C/C(=N\NC(=O)CC#N)C(c3nc4ccccc4s3)C(=O)C2=O)c1 (stereo not drawn)
GI50 (SK-MEL-5): > 100 µM (inactive) | GI50 (HT-29): > 100 µM (inactive) | GI50 (786-0): > 100 µM (inactive) | GI50 (ACHN): > 100 µM (inactive) | GI50 (A549): > 100 µM (inactive) | GI50 (HCT-15): > 100 µM | GI50 (SN12C): > 100 µM (inactive) | GI50 (SK-MEL-2): > 100 µM (inactive) | GI50 (SNB-75): > 100 µM (inactive) | GI50 (CCRF-CEM): > 100 µM (inactive) | GI50 (COLO 205): > 100 µM (inactive) | GI50 (NCI-H23): > 100 µM (inactive) | GI50 (UACC-62): > 100 µM (inactive) | GI50 (CAKI-1): > 100 µM (inactive) | GI50 (SF-295): > 100 µM (inactive)

From ChEMBL document CHEMBL1201862, “PubChem BioAssay data set” (2004)
